The source made the active and inactive calls. The rule behind the calls is not given here. Residues, ends and D or L forms follow the SMILES beside them. *: point of attachment. Cbz = O=C(OCc1ccccc1)*; CH2F = FC*
Legend:
MDA-MB-231 [1] = experiment: cells; conditions: Homo sapiens, MDA-MB-231, 72 h
Description: Antiproliferative activity against human MDA-MB-231 cells assessed as inhibition of cell proliferation incubated for 72 hrs by MTT assay

[2] = Cytotoxicity against human MCF-10A cells assessed as inhibition of cell proliferation incubated for 72 hrs by MTT assay; format: toxicity, cell-based
BT-549 [3] = experiment: cells; conditions: Homo sapiens, BT-549, 72 h
Description: Antiproliferative activity against human BT-549 cells assessed as inhibition of cell proliferation incubated for 72 hrs by MTT assay

[4] = Selectivity index, ratio of IC50 for antiproliferative activity against human MCF-10A cells assessed as inhibition of cell proliferation to IC50 for antiproliferative activity against human MDA-MB-231 cells assessed as inhibition of cell proliferation; format: toxicity, cell-based; conditions: MCF-10A cells and MDA-MB-231 cells, read-out: Ratio IC50
MDA-MB-231 [5] = experiment: Induction of ferroptosis in human MDA-MB-231 cells assessed as cell death in presence of Z-VAD-FMK; format: functional, cell-based
BT-549 [6] = experiment: Induction of ferroptosis in human BT-549 cells assessed as cell death in presence of Z-VAD-FMK; format: functional, cell-based
MDA-MB-231 [7] = experiment: Induction of ferroptosis in human MDA-MB-231 cells assessed as cell death in presence of ferrostatin-1; format: functional, cell-based
BT-549 [8] = experiment: Induction of ferroptosis in human BT-549 cells assessed as cell death in presence of ferrostatin-1; format: functional, cell-based
MDA-MB-231 [9] = experiment: Induction of apoptosis in human MDA-MB-231 cells; format: functional, cell-based
MDA-MB-231 [10] = experiment: Antiproliferative activity against human MDA-MB-231 cells assessed as reduction in cell proliferation incubated for 72 hrs by MTT assay; format: functional, cell-based
[11] = target: T1, Phospholipid hydroperoxide glutathione peroxidase GPX4 (Homo sapiens) (UniProt P36969); experiment: Inhibition of GPX4 (unknown origin) upto 3 uM incubated for 60 mins in presence of NADPH by absorbance based analysis
T1 sequence (whole entry): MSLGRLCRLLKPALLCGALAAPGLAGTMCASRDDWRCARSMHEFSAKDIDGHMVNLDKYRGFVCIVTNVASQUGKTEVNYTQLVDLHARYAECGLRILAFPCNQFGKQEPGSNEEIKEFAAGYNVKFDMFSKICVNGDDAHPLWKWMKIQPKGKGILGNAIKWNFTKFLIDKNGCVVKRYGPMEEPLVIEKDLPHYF

MDA-MB-231 [12] = experiment: Downregulation of NRF2 expression in human MDA-MB-231 cells at 5 uM; format: functional, cell-based
MDA-MB-231 [13] = experiment: Downregulation of HO-1 expression in human MDA-MB-231 cells at 5 uM; format: functional, cell-based
MDA-MB-231 [14] = experiment: Induction of apoptosis in human MDA-MB-231 cells assessed as early apoptotic cells at 5 uM incubated for 48 hrs by Annexin V/PI staining based flow cytometry analysis (reference value: 0.80%); format: functional
MDA-MB-231 [15] = experiment: Induction of cell cycle arrest in human MDA-MB-231 cells assessed as accumulation of cells at G2/M phase at 5 uM incubated for 48 hrs by propidium iodide staining flow cytometric analysis (reference value: 8.69%); format: functional
MDA-MB-231 [16] = experiment: Induction of cell cycle arrest in human MDA-MB-231 cells assessed as accumulation of cells at S phase at 5 uM incubated for 48 hrs by propidium iodide staining flow cytometric analysis (reference value: 26.75%); format: functional
MDA-MB-231 [17] = experiment: Induction of apoptosis in human MDA-MB-231 cells assessed as viable cells at 5 uM incubated for 48 hrs by Annexin V/PI staining based flow cytometry analysis (reference value: 97.85%); format: functional; conditions: read-out: Activity
MDA-MB-231 [18] = experiment: Induction of apoptosis in human MDA-MB-231 cells assessed as late apoptotic cells at 5 uM incubated for 48 hrs by Annexin V/PI staining based flow cytometry analysis (reference value: 0.14%); format: functional
MDA-MB-231 [19] = experiment: Induction of cell cycle arrest in human MDA-MB-231 cells assessed as accumulation of cells at G0/G1 phase at 5 uM incubated for 48 hrs by propidium iodide staining flow cytometric analysis (reference value: 64.56 %); format: functional
MDA-MB-231 [20] = experiment: Induction of apoptosis in human MDA-MB-231 cells assessed as necrotic cells at 5 uM incubated for 48 hrs by Annexin V/PI staining based flow cytometry analysis (reference value: 0.03%); format: functional

SMILES | IC50 (MDA-MB-231 [1]) | IC50 (BT-549 [3]) | also measured
Cc1sc2c(c1C)C(c1ccc(Cl)cc1)=N[C@@H](CC(=O)NCC1CCN(C(=O)CCl)CC1)c1nnc(C)n1-2 | 1000 nM | 720 nM | IC50 at 72 h [2]: 1470 nM; selectivity ratio [4]: 1.47
Cc1sc2c(c1C)C(c1ccc(Cl)cc1)=N[C@@H](CC(=O)NCCN1CCN(C(=O)CCl)CC1)c1nnc(C)n1-2 | 5940 nM | 6990 nM | 
Cc1sc2c(c1C)C(c1ccc(Cl)cc1)=N[C@@H](CC(=O)NCCOCCNC(=O)CCl)c1nnc(C)n1-2 | 3880 nM | 3400 nM | 
Cc1sc2c(c1C)C(c1ccc(Cl)cc1)=N[C@@H](CC(=O)Nc1ccc(NC(=O)CCl)cc1)c1nnc(C)n1-2 | 1400 nM | 970 nM | 
Cc1sc2c(c1C)C(c1ccc(Cl)cc1)=N[C@@H](CC(=O)NCCc1ccc(NC(=O)CCl)cc1)c1nnc(C)n1-2 | 690 nM | 850 nM | IC50 at 72 h [2]: 1540 nM; selectivity ratio [4]: 2.26
Cc1sc2c(c1C)C(c1ccc(Cl)cc1)=N[C@@H](CC(=O)NCCCCCNC(=O)CCl)c1nnc(C)n1-2 | 5570 nM | 2620 nM | 
Cc1sc2c(c1C)C(c1ccc(Cl)cc1)=N[C@@H](CC(=O)NCCC1CCN(C(=O)CCl)CC1)c1nnc(C)n1-2 | 3490 nM | 3190 nM | 
Cc1sc2c(c1C)C(c1ccc(Cl)cc1)=N[C@@H](CC(=O)NCCOCCOCCNC(=O)CCl)c1nnc(C)n1-2 | 3030 nM | 1720 nM | 
Cc1sc2c(c1C)C(c1ccc(Cl)cc1)=N[C@@H](CC(=O)Nc1ccc(CNC(=O)CCl)cc1)c1nnc(C)n1-2 | 1460 nM | 1070 nM | 
Cc1sc2c(c1C)C(c1ccc(Cl)cc1)=N[C@@H](CC(=O)NCCCN1CCN(C(=O)CCl)CC1)c1nnc(C)n1-2 | 2260 nM | 2460 nM | 
Cc1sc2c(c1C)C(c1ccc(Cl)cc1)=N[C@@H](CC(=O)NCCCCNC(=O)CCl)c1nnc(C)n1-2 | 4640 nM | 5280 nM | 
Cc1sc2c(c1C)C(c1ccc(Cl)cc1)=N[C@@H](CC(=O)NCCCNC(=O)CCl)c1nnc(C)n1-2 | 4570 nM | 2270 nM | 
Cc1sc2c(c1C)C(c1ccc(Cl)cc1)=N[C@@H](CC(=O)NCc1ccc(NC(=O)CCl)cc1)c1nnc(C)n1-2 | 1500 nM | 1000 nM | 
CCOC(=O)c1ccc(NC2CCCCC2)c(N)c1 |  |  | Activity (MDA-MB-231 [5]): Active; Activity (BT-549 [6]): Active
Cc1sc2c(c1C)C(c1ccc(Cl)cc1)=N[C@@H](CC(=O)NCCCCCCNC(=O)CCl)c1nnc(C)n1-2 | 5250 nM | 5390 nM | 
CC(C)[C@H](NC(=O)OCc1ccccc1)C(=O)N[C@@H](C)C(=O)N[C@@H](CC(=O)O)C(=O)CF (Cbz-Val-Ala-Asp-CH2F) |  |  | Activity (MDA-MB-231 [7]): Active; Activity (BT-549 [8]): Active; Activity (MDA-MB-231 [9]): inactive
Cc1sc2c(c1C)C(c1ccc(Cl)cc1)=N[C@@H](CC(=O)Nc1ccc(N3CCN(C(=O)CCl)CC3)cc1)c1nnc(C)n1-2 | 5310 nM | 7530 nM | 
Cc1sc2c(c1C)C(c1ccc(Cl)cc1)=N[C@@H](CC(=O)Nc1ccc(CCNC(=O)CCl)cc1)c1nnc(C)n1-2 | 13700 nM | 17100 nM | 
CC(=O)N1CCC(NC(=O)C[C@@H]2N=C(c3ccc(Cl)cc3)c3c(sc(C)c3C)-n3c(C)nnc32)CC1 |  |  | Activity (MDA-MB-231 [10]): Active; inhibition [11]: inactive
Cc1sc2c(c1C)C(c1ccc(Cl)cc1)=N[C@@H](CC(=O)NCCNC(=O)CCl)c1nnc(C)n1-2 | 3150 nM | 2400 nM | 
Cc1sc2c(c1C)C(c1ccc(Cl)cc1)=N[C@@H](CC(=O)N1CCN(C(=O)CCl)CC1)c1nnc(C)n1-2 | 740 nM | 720 nM | IC50 at 72 h [2]: 1150 nM; selectivity ratio [4]: 1.55
Cc1sc2c(c1C)C(c1ccc(Cl)cc1)=N[C@@H](CC(=O)OC(C)(C)C)c1nnc(C)n1-2 | 25900 nM | 20100 nM | IC50 at 72 h [2]: 46400 nM; Activity (MDA-MB-231 [12]): Active; Activity (MDA-MB-231 [13]): Active; Activity (MDA-MB-231 [14]): 16.44%; Activity (MDA-MB-231 [15]): 18.29%; Activity (MDA-MB-231 [16]): 31.23%; selectivity ratio [4]: 1.79; viability at 5 µM (MDA-MB-231 [17]): 66.4%; Activity (MDA-MB-231 [18]): 16.28%; Activity (MDA-MB-231 [19]): 50.48%; Activity (MDA-MB-231 [20]): 0.66%
Cc1sc2c(c1C)C(c1ccc(Cl)cc1)=N[C@@H](CC(=O)NCc1ccc(CNC(=O)CCl)cc1)c1nnc(C)n1-2 | 1370 nM | 950 nM | 

Source: ChEMBL document CHEMBL6153076, “Discovery of novel JQ1 derivatives as dual ferroptosis and apoptosis inducers for the treatment of triple-negative breast cancer” (Eur J Med Chem, 2025)
